Experimental data as given in patent US6737383B1, “Herbicidal oxadiazolidines” (priority 1999, dated 2004).

Columns and labels:
duck salad = assay: Test B flood test duck salad; type: in vivo, Heteranthera limosa
In short: (§1)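 Flood test on plants grown to the 2-leaf stage; treated plants kept in greenhouse twelve to sixteen days, then visually rated against controls on a 0 (no effect) to 10 (complete control) scale.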

wheat = assay: Test B pre/postemergence wheat; type: in vivo, Triticum aestivum; conditions: Preemergence
In short: (§2)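 Herbicidal effect was estimated by eye on a ten-point control scale after plants spent twelve to sixteen days in a greenhouse following soil or foliar treatment. Foliar sprays targeted plants at one to four leaves; all doses were formulated in a non-phytotoxic solvent with surfactant.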

rice = assay: Test B flood test rice; type: in vivo, Oryza sativa
In short: as §1

bedstraw = assay: Test B pre/postemergence bedstraw; type: in vivo, Galium aparine; conditions: Preemergence
In short: as §2

wild oat = assay: Test B pre/postemergence wild oat; type: in vivo, Avena fatua; conditions: Preemergence
In short: as §2

sugar beet = assay: Test B pre/postemergence sugar beet; type: in vivo, Beta vulgaris; conditions: Preemergence
In short: as §2

smallflower flatsedge = assay: Test B flood test smallflower flatsedge; type: in vivo, Cyperus difformis
In short: as §1

morningglory = assay: Test B pre/postemergence morningglory; type: in vivo, Ipomoea hederacea; conditions: Preemergence
In short: as §2

purple nutsedge = assay: Test B pre/postemergence purple nutsedge; type: in vivo, Cyperus rotundus; conditions: Preemergence
In short: as §2

velvetleaf = assay: Test B pre/postemergence velvetleaf; type: in vivo, Abutilon theophrasti; conditions: Preemergence
In short: as §2

cocklebur = assay: Test B pre/postemergence cocklebur; type: in vivo, Xanthium strumarium; conditions: Preemergence
In short: as §2

pigweed = assay: Test B pre/postemergence pigweed; type: in vivo, Amaranthus retroflexus; conditions: Preemergence
In short: as §2

blackgrass = assay: Test B pre/postemergence blackgrass; type: in vivo, Alopecurus myosuroides; conditions: Preemergence
In short: as §2

giant foxtail = assay: Test B pre/postemergence giant foxtail; type: in vivo, Setaria faberii; conditions: Preemergence
In short: as §2

corn = assay: Test B pre/postemergence corn; type: in vivo, Zea mays; conditions: Preemergence
In short: as §2

bamyardgrass = assay: Test B flood test barnyardgrass; type: in vivo, Echinochloa crus-galli
In short: as §1

soybean = assay: Test B pre/postemergence soybean; type: in vivo, Glycine max; conditions: Preemergence
In short: as §2

crabgrass = assay: Test B pre/postemergence crabgrass; type: in vivo, Digitaria sanguinalis; conditions: Preemergence
In short: as §2

surinam grass = assay: Test B pre/postemergence surinam grass; type: in vivo, Brachiaria decumbens; conditions: Preemergence
In short: as §2

rape = assay: Test B pre/postemergence rape; type: in vivo, Brassica napus; conditions: Preemergence
In short: as §2

[1] = Rate 62 g/ha, flood test species, Pre-emergence, visual evaluation after twelve to sixteen days
[2] = Rate 125 g/ha, under heading Pre-emergence, flood test species, visual evaluation after twelve to sixteen days
[3] = Rate 250 g/ha, Pre-emergence (flood test species), scale 0 to 10, 0 is no effect, 10 is complete control
[4] = Rate 500 g/ha, Pre-emergence section of Table B, 0 to 10 scale (0 no effect, 10 complete control)
[5] = Rate 125 g/ha, scale of 0 to 10 where 0 is no effect and 10 is complete control
[6] = Rate 1000 g/ha, scale 0 to 10 (0 no effect, 10 complete control)
[7] = Rate 250 g/ha, scale 0 to 10 (0 no effect, 10 complete control)
[8] = Rate 500 g/ha, scale of 0 to 10 where 0 is no effect and 10 is complete control

SMILES: COP(=O)(CCn1c(=O)on(C(=O)N(c2ccccc2)C(C)C)c1=O)OC [Compound 697]
- Plant response rating, Ducksalad (0 to 10 scale, 0 is no effect, 10 is complete control) (duck salad; [1]): 0
- Ducksalad plant response rating (0 to 10 scale, 0 is no effect, 10 is complete control) (duck salad; [2]): 0
- Ducksalad plant response rating (duck salad; [3]): 0
- Ducksalad plant response rating (duck salad; [4]): 0
- Plant response rating, Wheat (wheat; [5]): 0
- Plant response rating, Wheat (wheat; [6]): 7
- Plant response rating, Rice (0 to 10 scale, 0 is no effect, 10 is complete control) (rice; [1]): 0
- Rice plant response rating (0 to 10 scale, 0 is no effect, 10 is complete control) (rice; [2]): 0
- Rice plant response rating (rice; [3]): 0
- Rice plant response rating (rice; [4]): 0
- Plant response rating, Bedstraw (bedstraw; [5]): 0
- Plant response rating, Bedstraw (bedstraw; [7]): 0
- Plant response rating, Bedstraw (bedstraw; [8]): 0
- Plant response rating, Bedstraw (bedstraw; [6]): 0
- Plant response rating, Wild oats (wild oat; [5]): 0
- Plant response rating, Wild oats (wild oat; [6]): 9
- Plant response rating, Sugarbeets (sugar beet; [5]): 0
- Plant response rating, Sugarbeets (sugar beet; [6]): 0
- Plant response rating, S. Flatsedge (0 to 10 scale, 0 is no effect, 10 is complete control) (smallflower flatsedge; [1]): 0
- S. Flatsedge plant response rating (0 to 10 scale, 0 is no effect, 10 is complete control) (smallflower flatsedge; [2]): 0
- S. Flatsedge plant response rating (smallflower flatsedge; [3]): 0
- S. Flatsedge plant response rating (smallflower flatsedge; [4]): 0
- Plant response rating, Morningglory (morningglory; [5]): 0
- Plant response rating, Morningglory (morningglory; [6]): 5
- Plant response rating, Nutsedge (purple nutsedge; [5]): 0
- Plant response rating, Nutsedge (purple nutsedge; [6]): 0
- Plant response rating, Velvetleaf (velvetleaf; [5]): 0
- Plant response rating, Velvetleaf (velvetleaf; [6]): 2
- Plant response rating, Cocklebur (cocklebur; [7]): 0
- Plant response rating, Cocklebur (cocklebur; [8]): 0
- Plant response rating, Cocklebur (cocklebur; [6]): 0
- Plant response rating, Redroot pigweed (pigweed; [5]): 0
- Plant response rating, Redroot pigweed (pigweed; [6]): 0
- Plant response rating, Blackgrass (blackgrass; [5]): 0
- Plant response rating, Blackgrass (blackgrass; [7]): 2
- Plant response rating, Blackgrass (blackgrass; [8]): 6
- Plant response rating, Blackgrass (blackgrass; [6]): 10
- Plant response rating, Giant foxtail (giant foxtail; [5]): 0
- Plant response rating, Giant foxtail (giant foxtail; [6]): 10
- Plant response rating, Corn (corn; [5]): 0
- Plant response rating, Corn (corn; [7]): 0
- Plant response rating, Corn (corn; [6]): 0
- Plant response rating, Barnyardgrass (0 to 10 scale, 0 is no effect, 10 is complete control) (bamyardgrass; [1]): 0
- Barnyardgrass plant response rating (0 to 10 scale, 0 is no effect, 10 is complete control) (bamyardgrass; [2]): 0
- Barnyardgrass plant response rating (bamyardgrass; [3]): 0
- Barnyardgrass plant response rating (bamyardgrass; [4]): 0
- Plant response rating, Soybean (soybean; [5]): 0
- Plant response rating, Soybean (soybean; [6]): 0
- Plant response rating, Crabgrass (crabgrass; [5]): 0
- Plant response rating, Crabgrass (crabgrass; [7]): 4
- Plant response rating, Crabgrass (crabgrass; [6]): 9
- Plant response rating, B. signalgrass (surinam grass; [5]): 0
- Plant response rating, B. signalgrass (surinam grass; [7]): 0
- Plant response rating, B. signalgrass (surinam grass; [8]): 5
- Plant response rating, B. signalgrass (surinam grass; [6]): 9
- Plant response rating, Rape (rape; [5]): 0
- Plant response rating, Rape (rape; [6]): 0
